According to US6395732B1, “Pyrimidin-aminomethyl-pyridine derivatives, their preparation and their use in the control of helicobacter bacteria” (BYK Gulden Lomberg Chemische Fabrik GmbH, priority 1998, dated 2002):

How the values were obtained:
Helicobacter pylori = test: Activity against Helicobacter pylori, agar method of Iwahi et al. (MIC 50); assay type: cell-based; conditions: Columbia agar (Oxoid), growth period of 4 days, approximate values; for MIC50: Helicobacter pylori, 96 h, read-out: Appr. MIC 50
Source text: The compounds of the formula I were investigated with respect to their activity against Helicobacter pylori following the method described by Tomoyuki Iwahi et al. (Antimicrobial Agents and Chemotherapy, 1991, 490-496) using Columbia agar (Oxoid) and a growth period of 4 days.

For `Cc1nc(C)c(Cl)c(NCc2nccc(OCCOCCSCCn3c([N+](=O)[O-])cnc3C)c2C)n1` [Compound 28, (5-Chloro-2,6-dimethyl-pyrimidin-4-yl)-[3-methyl-4-(2-{2-[2-(2-methyl-5nitro-imidazol-1-yl)ethylsulfanyl]-ethoxy}-ethoxy)-pyridin-2-ylmethyl]-amine], the MIC50 (Helicobacter pylori) was at most 0.1 µg/mL and the melting point was 102 to 105 °C.
`Cc1nc(C)c(Cl)c(NCc2nccc(SCCCSCc3ccccn3)c2C)n1` [Compound 48, (5-Chloro-2,6-dimethyl-pyrimidin-4-yl)-{3-methyl-4-[3-(pyridin-2-ylmethylsulfanyl)-propylsulfanyl]-pyridin-2-ylmethyl}-amine] showed an MIC50 (Helicobacter pylori) of at most 0.1 µg/mL and a melting point of 100 to 101 °C.
In the case of `Cc1nc(C)c(Cl)c(NCc2nccc(OCCCCSCc3cccnc3)c2C)n1` [Compound 50], the “Appr. MIC 50” value (Helicobacter pylori) is reported as “≦0.1 μg/ml”.
Work on `Cc1nc(C)c(Cl)c(NCc2nccc(N(C)CCN3CCc4ccccc4C3)c2Cl)n1` [Compound 1, (3-Chloro-4-{[2-(3,4-dihydro-1H-isoquinolin-2-yl)ethyl]methylamino}pyridin-2-ylmethyl)-(5-chloro-2,6-dimethylpyrimidin-4-yl)amine] yielded a melting point of 81 to 93 °C.
`Cc1nc(C)c(Cl)c(NCc2nccc(SCCCSc3ncc(-c4ccccc4)[nH]3)c2C)n1.Cl` showed a melting point of 188 to 190 °C.
For `Cc1nc(C)c(Cl)c(NCc2nccc(OCCCCN3CCN(Cc4ccncc4)CC3)c2C)n1` [Compound 11, (5-Chloro-2,6-dimethylpyrimidin-4-yl)-{3-methyl-4-[4-(4-pyridin-4-ylmethylpiperazin-1-yl)butoxy]pyridin-2-ylmethyl}amine], the melting point was 157 to 158 °C.
In the case of `Cc1nc(C)c(Cl)c(NCc2nccc(SCCCSc3ncccn3)c2C)n1` [Compound 10, (5-Chloro-2,6-dimethylpyrimidin-4-yl)-{3-methyl-4-[3-(pyrimidin-2-ylsulfanyl)propylsulfanyl]-pyridin-2-ylmethyl}amine], the MIC50 (Helicobacter pylori) is reported as at most 0.1 µg/mL and the melting point is reported as 158 to 159 °C.
`Cc1nc(C)c(Cl)c(NCc2nccc(SCCOCCOCCSCc3ccncc3)c2C)n1` [Compound 43, (5-Chloro-2,6-dimethyl-pyrimidin-4-yl)-[3-methyl-4-(2-{2-[2-(pyridin-4-ylmethylsulfanyl)-ethoxy]-ethoxy}-ethylsulfanyl)-pyridin-2-ylmethyl]-amine] showed an MIC50 (Helicobacter pylori) of at most 0.1 µg/mL and a melting point of 84 to 86 °C.
For `Cc1nc(C)c(Cl)c(NCc2nccc(OCCCCSCCn3c([N+](=O)[O-])cnc3C)c2C)n1` [Compound 16, (5-Chloro-2,6-dimethylpyrimidin-4-yl)-(3-methyl-4-{4-[2-(2-methyl-5-nitroimidazol-1-yl)-ethylsulfanyl]butoxy}pyridin-2-ylmethyl]amine], the MIC50 (Helicobacter pylori) was at most 0.1 µg/mL and the melting point was 114 to 117 °C.
`Cc1nc(C)c(Cl)c(NCc2nccc(SCCCCSCCn3c([N+](=O)[O-])cnc3C)c2C)n1` [Compound 19, (5-Chloro-2,6-dimethylpyrimidin-4-yl)-(3-methyl-4-{4-[2-(2-methyl-5-nitroimidazol-1-yl)-ethylsulfanyl]butylsulfanyl}pyridin-2-ylmethyl)amine] showed an MIC50 (Helicobacter pylori) of at most 0.1 µg/mL and a melting point of 142 to 144 °C.
For `Cc1nc(C)c(Cl)c(NCc2nccc(OCCCCSCCO)c2C)n1` [Compound 36, 2-(4-{2-[(5-Chloro-2,6-dimethyl-pyrimidin-4-ylamino)-methyl]-3-methyl-pyridin-4-yloxy}-butylsulfanyl)-ethanol], the MIC50 (Helicobacter pylori) was at most 0.1 µg/mL and the melting point was 116 to 118 °C.
For `Cc1c(OCCSCCn2c([N+](=O)[O-])cnc2C)ccnc1CNc1ncncc1Cl` [Compound 49, (5-Chloro-pyrimidin-4-yl)-(3-methyl-4-{2-[2-(2-methyl-5-nitro-imidazol-1-yl)-ethylsulfanyl]-ethoxy}-pyridin-2-ylmethyl)-amine], the MIC50 (Helicobacter pylori) was at most 0.1 µg/mL and the melting point was 145 to 147 °C.
In the case of `Cc1nc(C)c(Cl)c(NCc2nccc(SCCCSCCO[C@@H]3O[C@H](CO)[C@@H](O)[C@H](O)[C@H]3O)c2C)n1` [Compound 39, 2-(3-{2-[(5-Chloro-2,6-dimethyl-pyrimidin-4-ylamino)-methyl]-3-methyl-pyridin-4-ylsulfanyl}-propylsulfanyl)-β-D-glucopyranoside], the “Appr. MIC 50” value (Helicobacter pylori) is reported as “≦0.1 μg/ml”.
In the case of `Cc1nc(C)c(Cl)c(NCc2nccc(SCCCSCCn3c([N+](=O)[O-])cnc3C)c2C)n1` [Compound 27, (5-Chloro-2,6-dimethylpyrimidin-4-yl)-(3-methyl-4-{3-[2-(2-methyl-5-nitroimidazol-1-yl)-ethylsulfanyl]propylsulfanyl}pyridin-2-ylmethyl)amine], the MIC50 (Helicobacter pylori) is reported as at most 0.1 µg/mL and the melting point is reported as 145 to 147 °C.
`Cc1nc(C)c(Cl)c(NCc2nccc(SCCCSCCO)c2C)n1` [Compound 31, 2-(3-{2-[(5-Chloro-2,6-dimethyl-pyrimidin-4-ylamino)-methyl]-3-methyl-pyridin-4-ylsulfanyl}-propylsulfanyl)-ethanol] gave an MIC50 (Helicobacter pylori) of at most 0.1 µg/mL and a melting point of 134 to 137 °C.
`Cc1c(SCCCN2CCN(Cc3ccncc3)CC2)ccnc1CNc1ncncc1Cl` [Compound 45, (5-Chloro-pyrimidin-4-yl)-{3-methyl-4-[3-(4-pyridin-4-ylmethyl-piperazin-1-yl)-propylsulfanyl]-pyridin-2-ylmethyl}-amine] showed an MIC50 (Helicobacter pylori) of at most 0.1 µg/mL and a melting point of 149 to 151 °C.
`Cc1c(SCCCSCCn2c([N+](=O)[O-])cnc2C)ccnc1CNc1ncncc1Cl` [Compound 9, (5-Chloropyrimidin-4-yl)-(3-methyl-4-{3-[2-(2-methyl-5-nitroimidazol-1-yl)ethylsulfanyl]propylsulfanyl}-pyridin-2-ylmethyl)amine] showed an MIC50 (Helicobacter pylori) of at most 0.1 µg/mL and a melting point of 119 to 121 °C.
For `Cc1c(OCCSCc2ccco2)ccnc1CNc1ncncc1Cl` [Compound 58, (5-Chloro-pyrimidin-4-yl)-{4-[2-(furan-2-ylmethylsulfanyl)-ethoxy]-3-methyl-pyridin-2-ylmethyl}-amine], the MIC50 (Helicobacter pylori) was at most 0.1 µg/mL and the melting point was 129 to 130 °C.
Work on `Cc1nc(C)c(Cl)c(NCc2nccc(OCCCCSCc3ccccn3)c2C)n1` [Compound 51, (5-Chloro-2,6-dimethyl-pyrimidin-4-yl)-{3-methyl-4-[4-(pyridin-2-ylmethylsulfanyl)-butoxy]-pyridin-2-ylmethyl}-amine] yielded an MIC50 (Helicobacter pylori) of at most 0.1 µg/mL and a melting point of 113 to 114 °C.
`Cc1nc(C)c(Cl)c(NCc2nccc(SCCCSCc3cccnc3)c2C)n1` [Compound 47, (5-Chloro-2,6-dimethyl-pyrimidin-4-yl)-{3-methyl-4-[3-(pyridin-3-ylmethylsulfanyl)-propylsulfanyl]-pyridin-2-ylmethyl}-amine] gave an MIC50 (Helicobacter pylori) of at most 0.1 µg/mL and a melting point of 104 to 105 °C.
In the case of `Cc1nc(C)c(Cl)c(NCc2nccc(SCCCCN3CCNCC3)c2C)n1` [Compound 17, (5-Chloro-2,6-dimethylpyrimidin-4-yl)-[3-methyl-4-(4-piperazin-1-ylbutylsulfanyl)pyridin-2-ylmethyl]amine], the MIC50 (Helicobacter pylori) is reported as at most 0.1 µg/mL and the melting point is reported as 143 to 145 °C.
Compound `Cc1c(SCCCSCc2ccncc2)ccnc1CNc1ncncc1Cl` [Compound 8, (5-Chloropyrimidin-4-yl)-{3-methyl-4-[3-(pyridin-4-ylmethylsulfanyl)propylsulfanyl]-pyridin-2-ylmethyl}amine] has an MIC50 (Helicobacter pylori) of at most 0.1 µg/mL and a melting point of 148 to 149 °C.
Compound `Cc1nc(C)c(Cl)c(NCc2nccc(SCC3CCCN(C)C3)c2C)n1` (stereo not drawn) [Compound 44, (5-Chloro-2,6-dimethyl-pyrimidin-4-yl)-[3-methyl-4-(1-methyl-piperidin-3-ylmethylsulfanyl)-pyridin-2-ylmethyl]-amine] has an MIC50 (Helicobacter pylori) of at most 0.1 µg/mL and a melting point of 148 to 149 °C.
With `Cc1nc(C)c(Cl)c(NCc2nccc(SCc3ccncc3)c2C)n1` [Compound 46, (5-Chloro-2,6-dimethyl-pyrimidin-4-yl)-[3-methyl-4-(pyridin-4-ylmethylsulfanyl)-pyridin-2-ylmethyl]-amine] the MIC50 (Helicobacter pylori) was at most 0.1 µg/mL and the melting point was 188 to 191.9 °C.
`Cc1nc(C)c(Cl)c(NCc2nccc(SCCCSCCSc3ncccn3)c2C)n1` [Compound 41, (5-Chloro-2,6-dimethyl-pyrimidin-4-yl)-(3-methyl-4-{3-[2-(pyrimidin-2-ylsulfanyl)-ethylsulfanyl]-propylsulfanyl}-pyridin-2-ylmethyl)-amine] gave an MIC50 (Helicobacter pylori) of at most 0.1 µg/mL and a melting point of 112 to 115 °C.
Compound `Cc1nc(C)c(Cl)c(NCc2nccc(CNCCO)c2Cl)n1` [Compound 2, 2-({3-Chloro-2-[(5-chloro-2,6-dimethylpyrimidin-4-ylamino)methyl]pyridin-4-yl}methylamino)ethanol] has a melting point of 162 to 165 °C.
Work on `Cc1nc(C)c(Cl)c(NCCCSc2ccnc(CNc3nc(C)nc(C)c3Cl)c2C)n1` [Compound 7, {4-[3-(5-Chloro-2,6-dimethylpyrimidin-4-ylamino)propylsulfanyl]-3-methylpyridin-2-yl-methyl}-(5-chloro-2,6-dimethylpyrimidin-4-yl)amine] yielded an MIC50 (Helicobacter pylori) of at most 0.1 µg/mL.
Work on `Cc1nc(C)c(Cl)c(NCc2nccc(OCCCCN3CCNCC3)c2C)n1` [Compound 14, (5-Chloro-2,6-dimethylpyrimidin-4-yl)-[3-methyl-4-(4-piperazin-1-ylbutoxy)pyridin-2-ylmethyl]amine] yielded a melting point of 140 to 144 °C.
For `Cc1nc(C)c(Cl)c(NCc2nccc(OCCCCSCc3ccncc3)c2C)n1` [Compound 15, (5-Chloro-2,6-dimethylpyrimidin-4-yl)-{3-methyl-4-[4-(piridin-4-ylmethylsulfanyl)-butoxy]pyridin-2-ylmethyl}amine], the “Appr. MIC 50” value (Helicobacter pylori) was “≦0.1 μg/ml”.
With `Cc1nc(C)c(Cl)c(NCc2nccc(SCCCCN3CCN(Cc4ccncc4)CC3)c2C)n1` [Compound 12, (5-Chloro-2,6-dimethylpyrimidin-4-yl)-{3-methyl-4-[4-(4-pyridin-4-ylmethylpiparazin-1-yl)butylsulfanyl]pyridin-2-ylmethyl}amine] the “Appr. MIC 50” value (Helicobacter pylori) was “≦0.1 μg/ml”.
In the case of `Cc1nc(C)c(Cl)c(NCc2nccc(OCCCCSc3ncccn3)c2C)n1` [Compound 6], the “Appr. MIC 50” value (Helicobacter pylori) is reported as “≦0.1 μg/ml”.
